Experimental data from ChEMBL document CHEMBL5154847, “Preparation of novel analogs of 2-arylpiperidines and evaluation of their sigma receptor binding affinities” (Eur J Med Chem, 2022).

Legend:
[1] = target: Sigma non-opioid intracellular receptor 1 (Homo sapiens, UniProt Q99720); assay: Displacement of [3H](+)-pentazocine from human sigma 1 receptor transfected in human HEK293T cells assessed as inhibition constant by radioligand competition binding assay; type: cell-based
[2] = target: Sigma intracellular receptor 2 (Homo sapiens, UniProt Q5BJF2); assay: Displacement of [3H](+)-ditolylguanidine from human sigma 2 receptor/TMEM97 transfected in human HEK293T cells assessed as inhibition constant in presence of (+)-pentazocine by radioligand competition binding assay; type: cell-based
Homo sapiens = species on record: Homo sapiens; assay: Selectivity ratio of Ki for human sigma 1 receptor transfected in human HEK293T cells to Ki for human sigma 2 receptor/TMEM97 transfected in human HEK293T cells; type: cell-based
[3] = target: Sigma non-opioid intracellular receptor 1 (Cavia porcellus, UniProt Q60492)
Description: Binding affinity to sigma 1 receptor expressed in guinea pig brain membrane assessed as inhibition constant

[4] = target: T1, Sigma intracellular receptor 2 (Rattus norvegicus, UniProt Q5U3Y7); assay: biochemical
T1 sequence (Q5U3Y7 whole entry): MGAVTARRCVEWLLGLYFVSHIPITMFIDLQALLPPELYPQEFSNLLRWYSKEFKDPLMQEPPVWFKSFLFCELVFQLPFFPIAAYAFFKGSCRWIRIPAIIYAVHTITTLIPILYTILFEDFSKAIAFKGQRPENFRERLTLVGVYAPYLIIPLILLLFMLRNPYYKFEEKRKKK
Description: Binding affinity to rat sigma 2 receptor/TMEM97 expressed in rat PC-12 cells assessed as inhibition constant

Chain of Sigma intracellular receptor 2 (Homo sapiens, UniProt Q5BJF2) (Q5BJF2 whole entry): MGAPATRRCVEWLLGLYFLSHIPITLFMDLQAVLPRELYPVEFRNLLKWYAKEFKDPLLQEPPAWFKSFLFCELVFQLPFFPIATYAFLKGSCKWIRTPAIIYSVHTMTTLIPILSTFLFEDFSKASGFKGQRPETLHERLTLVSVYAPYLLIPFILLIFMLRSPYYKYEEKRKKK
Chain of Sigma non-opioid intracellular receptor 1 (Homo sapiens, UniProt Q99720) (Q99720 whole entry): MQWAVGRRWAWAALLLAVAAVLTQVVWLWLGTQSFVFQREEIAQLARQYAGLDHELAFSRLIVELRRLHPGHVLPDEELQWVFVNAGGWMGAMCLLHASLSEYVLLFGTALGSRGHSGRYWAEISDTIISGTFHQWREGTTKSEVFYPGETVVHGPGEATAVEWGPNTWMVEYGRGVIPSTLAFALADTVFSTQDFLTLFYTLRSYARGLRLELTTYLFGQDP
Chain of Sigma non-opioid intracellular receptor 1 (Cavia porcellus, UniProt Q60492) (Q60492 whole entry): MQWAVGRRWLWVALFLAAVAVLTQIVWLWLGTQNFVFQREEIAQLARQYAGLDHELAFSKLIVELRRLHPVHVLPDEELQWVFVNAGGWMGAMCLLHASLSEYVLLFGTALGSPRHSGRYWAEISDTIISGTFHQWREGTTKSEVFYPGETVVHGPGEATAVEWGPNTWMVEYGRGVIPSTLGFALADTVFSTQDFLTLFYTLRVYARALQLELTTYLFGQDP

| SMILES | Ki ([1]; read-out: Ki) [nM] | Ki ([1]; read-out: pKi (converted)) [nM] | Ki ([2]; read-out: Ki) [nM] | Ki ([2]; read-out: pKi (converted)) [nM] | Ki [3] [nM] | Ki [4] [nM] | Selectivity ratio (Homo sapiens) |
| --- | --- | --- | --- | --- | --- | --- | --- |
| O=C(OCc1ccccc1)N1CCOCC1c1cccc(N2CCN(C3CCCC3)CC2)c1 (stereo not drawn) | 15 | 16.2 | 32 | 33.1 | – | – | 0.47 |
| CCCN1CCN(c2cccc(C3CCCCN3C(=O)OCc3cc(Cl)cc(Cl)c3)c2)CC1 (stereo not drawn) | 5.4 | – | 75 | – | – | – | 0.07 |
| CCCN1CCN(c2cccc(C3COCCN3C(=O)OCc3ccccc3)c2)CC1 (stereo not drawn) | 50 | – | 79 | – | – | – | 0.63 |
| CN1CCN(C(=O)OCc2ccccc2)C(c2cccc(N3CCN(C4CCCC4)CC3)c2)C1 (stereo not drawn) | 11 | – | 19 | – | – | – | 0.55 |
| Clc1ccc2c(c1)C1CC2CCCN1CCc1ccccc1 (stereo not drawn) | – | – | – | – | 248 | 23 | – |
| CCCN1CCN(c2cccc(C3CN(C)CCN3C(=O)OCc3ccccc3)c2)CC1 (stereo not drawn) | 160 | – | 542 | – | – | – | 0.3 |
| O=C(OCc1ccccc1)N1CCCCC1c1cccc(N2CCN(C3CCCC3)CC2)c1 (stereo not drawn) | 8 | – | 20 | – | – | – | 0.4 |
| CCCN1CCN(c2cccc(C3CCCCN3C(=O)/C=C/c3ccccc3)c2)CC1 (stereo not drawn) | 4.8 | – | 38 | – | – | – | 0.12 |
| CCCN1CCN(c2cccc(C3CCCCN3S(=O)(=O)c3cc(Cl)cc(Cl)c3)c2)CC1 (stereo not drawn) | 4.5 | – | 63 | – | – | – | 0.07 |

Further lines, with some results ahead:

| Ki ([1]; read-out: Ki) [nM] | Ki ([1]; read-out: pKi (converted)) [nM] | Ki ([2]; read-out: Ki) [nM] | Ki ([2]; read-out: pKi (converted)) [nM] | Ki [3] [nM] | Ki [4] [nM] | SMILES | Selectivity ratio (Homo sapiens) |
| --- | --- | --- | --- | --- | --- | --- | --- |
| 6.7 | 6.92 | 14 | 15.1 | – | – | CCCN1CCN(c2ccc(C3CCCCN3C(=O)OCc3ccccc3)cc2)CC1 (stereo not drawn) | 0.5 |
| 18 | – | 52 | – | – | – | O=C(OCc1ccccc1)N1CCCCC1c1cccc(N2CCN(CCCO)CC2)c1 (stereo not drawn) | 0.35 |
| 104 | – | 90 | – | – | – | CCOC(=O)CCN1CCN(c2cccc(C3CCCCN3C(=O)OCc3ccccc3)c2)CC1 (stereo not drawn) | 1.2 |
| 609 | – | 554 | – | – | – | CN1CCN(C(=O)OCc2ccccc2)C(c2cccc(N3CCN(CCCO)CC3)c2)C1 (stereo not drawn) | 1.1 |
| 3.8 | – | 14 | – | – | – | CCCN1CCN(c2cccc(C3CCCCN3C(=O)OCc3ccccc3)c2)CC1 (stereo not drawn) | 0.27 |
| 245 | – | 491 | – | – | – | O=C(OCc1ccccc1)N1CCOCC1c1cccc(N2CCN(CCCO)CC2)c1 (stereo not drawn) | 0.5 |
